Target: USP1, construct USP1 (1-785, GG670, 671AA)/UAF1 (1-677)-Flag (Homo sapiens (Human), UniProt O94782, G670A/G671A)
Experiment: Ubiquitin-Rhodamine 110 assay for USP1 activity, follow-up IC50 studies
Assay type: biochemical
Details: USP1/UAF1, 30 min preincubation
Method: Example 53: Ubitquin-Rhodamine 110 Assay for USP1 Activity
Nanoliter quantities of either an 8-point or 10-point, 3-fold serial dilution in DMSO was pre-dispensed into assay plates (Perkin Elmer, ProxiPlate-384 F Plus, #6008269) for a final test concentration range of either 25 μM to 11 nM or 25 μM to 1.3 nM, respectively. The final concentration of the enzyme (USP1, construct USP1 (1-785, GG670, 671AA)/UAF1 (1-677)-Flag; Viva) in the assay was 25 pM. Final substrate (Ub-Rh110; Ubiquitin-Rhodamine 110, R&D Systems #U-555) concentration was 25 nM with [Ub-Rh110]<<Km. […] Plates were incubated stacked for 20 minutes at room temperature before 5 μL of stop solution (final concentration of 10 mM citric acid in assay buffer (Sigma, #251275-500G)). Fluorescence was read on the Envision (Excitation at 485 nm and Emission at 535 nm; Perkin Elmer) or on the PheraSTAR (Excitation at 485 nm and Emission at 535 nm; BMG Labtech).
For both assay formats data were reported as percent inhibition compared with control wells based on the following equation: % inh=[1−((FLU−AveLow)/(AveHigh−AveLow))]×100 where FLU=measured Fluorescence, AveLow=average Fluorescence of no enzyme control (n=16), and AveHigh=average Fluorescence of DMSO control (n=16). IC50 values were determined by curve fitting of the standard 4 parameter logistic fitting algorithm included in the Activity Base software package: IDBS XE Designer Model205. Data is fitted using the Levenburg Marquardt algorithm.

USP1, construct USP1 (1-785, GG670, 671AA)/UAF1 (1-677)-Flag, sequence (O94782 whole entry G670A/G671A): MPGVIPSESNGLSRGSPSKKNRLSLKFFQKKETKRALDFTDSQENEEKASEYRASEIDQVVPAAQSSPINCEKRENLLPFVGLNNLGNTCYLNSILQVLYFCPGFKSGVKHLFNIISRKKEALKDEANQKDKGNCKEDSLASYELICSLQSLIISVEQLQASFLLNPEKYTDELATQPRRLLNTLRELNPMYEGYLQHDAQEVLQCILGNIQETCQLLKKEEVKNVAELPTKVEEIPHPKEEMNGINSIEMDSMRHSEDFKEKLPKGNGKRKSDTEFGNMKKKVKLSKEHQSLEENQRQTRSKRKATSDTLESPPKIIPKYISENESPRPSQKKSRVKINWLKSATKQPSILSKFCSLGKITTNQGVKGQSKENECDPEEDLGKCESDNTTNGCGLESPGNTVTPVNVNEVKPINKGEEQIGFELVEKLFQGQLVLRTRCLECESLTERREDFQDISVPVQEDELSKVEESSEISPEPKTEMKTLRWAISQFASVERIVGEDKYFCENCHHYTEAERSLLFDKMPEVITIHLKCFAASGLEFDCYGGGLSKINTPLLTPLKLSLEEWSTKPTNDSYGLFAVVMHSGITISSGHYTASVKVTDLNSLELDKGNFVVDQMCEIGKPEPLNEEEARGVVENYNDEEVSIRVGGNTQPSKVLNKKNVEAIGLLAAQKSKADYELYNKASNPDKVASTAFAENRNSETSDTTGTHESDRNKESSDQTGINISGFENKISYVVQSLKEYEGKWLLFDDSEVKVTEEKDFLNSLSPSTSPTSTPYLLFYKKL
USP1, construct USP1 (1-785, GG670, 671AA)/UAF1 (1-677)-Flag, sequence (Q8TAF3 whole entry partner): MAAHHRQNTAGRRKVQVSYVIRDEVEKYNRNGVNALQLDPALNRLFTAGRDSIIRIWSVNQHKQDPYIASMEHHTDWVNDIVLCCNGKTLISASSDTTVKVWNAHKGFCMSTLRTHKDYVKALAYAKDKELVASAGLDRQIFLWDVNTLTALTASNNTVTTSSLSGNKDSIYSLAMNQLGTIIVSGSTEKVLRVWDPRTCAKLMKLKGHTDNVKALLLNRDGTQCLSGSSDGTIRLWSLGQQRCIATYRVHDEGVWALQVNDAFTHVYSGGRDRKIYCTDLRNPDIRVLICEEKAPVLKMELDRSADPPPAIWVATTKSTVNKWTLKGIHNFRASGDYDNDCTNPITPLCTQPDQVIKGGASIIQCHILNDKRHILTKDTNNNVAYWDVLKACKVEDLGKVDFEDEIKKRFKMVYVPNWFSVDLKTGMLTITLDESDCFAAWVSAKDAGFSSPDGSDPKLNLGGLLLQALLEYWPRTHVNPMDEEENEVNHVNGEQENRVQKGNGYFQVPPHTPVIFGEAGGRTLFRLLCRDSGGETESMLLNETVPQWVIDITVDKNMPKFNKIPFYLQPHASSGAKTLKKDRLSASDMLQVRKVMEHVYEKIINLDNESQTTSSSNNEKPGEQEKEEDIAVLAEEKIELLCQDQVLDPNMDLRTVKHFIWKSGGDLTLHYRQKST

First: Cc1cc(C)n([C@H]2CC[C@H](Cn3c(=O)[nH]c4cnc(-c5ccccc5C(C)C)nc43)CC2)n1 [I-213, 9-(((1r,4r)-4-(3,5-dimethyl-1H-pyrazol-1-yl)cyclohexyl)methyl)-2-(2-isopropylphenyl)-7,9-dihydro-8H-purin-8-one]
Second: Cc1cc(C)n([C@H]2CC[C@@H](Cn3c(=O)n(C)c4cnc(-c5ccccc5C(C)C)nc43)CC2)n1 [I-111, 9-(((1s,4s)-4-(3,5-dimethyl-1H-pyrazol-1-yl)cyclohexyl)methyl)-2-(2-isopropylphenyl)-7-methyl-7,9-dihydro-8H-purin-8-one]
The IC50 of the first is higher: 200 to 2000 nM for the first, 50 to 200 nM for the second. The second is the more potent here.

`Cn1cc(C(F)(F)F)nc1-c1ccc(Cn2c(=O)n(C)c3cnc(-c4ccccc4C4CC4)nc32)cc1` [I-70, 2-(2-cyclopropylphenyl)-7-methyl-9-(4-(1-methyl-4-(trifluoromethyl)-1H-imidazol-2-yl)benzyl)-7,9-dihydro-8H-purin-8-one] showed an IC50 of under 50 nM.

From patent publication US10399980B2, “Purinones as ubiquitin-specific protease 1 inhibitors” (FORMA Therapeutics, Inc., priority 2015, dated 2019)
